Measured values: patent US11825868B2, “Sweetener composition” (Hapy Sweet Bee Ltd, priority 2019, dated 2023)
In brackets after ≈: the same amount, converted by molar mass. Blank lines part the entries; values can stand above or below the molecule they belong to.

Key:
microbial growth = conditions: cited from earlier work
[1] = relative to sucrose, baseline 1.0; cited from earlier work
[2] = on the palate; reb-M used alone or substantially alone, compared to established rebaudioside sweeteners including reb-A; cited from earlier work
[3] = Solubility and retention of reb-M in 1,3-propanediol after heating and cooling; format: physicochemical
Procedure: The solvent or liquid base for the sweetener composition may comprise 1,3-propanediol and optionally one or more additional solvents. […] (175° F.) and cooled to room temperature. […] (36° F.).

[4] = room temperature; cited from earlier work

Molecule: 1,3-propanediol
- minimum inhibitory concentration (MIC) compared with other solvents such as glycerin (microbial growth): lower

Molecule: OC[C@H]1O[C@@](CO)(O[C@H]2O[C@H](CO)[C@@H](O)[C@H](O)[C@H]2O)[C@@H](O)[C@@H]1O [sucrose]
- sweetness index [1]: 1.0

Molecule: O=C(CO)[C@@H](O)[C@H](O)[C@H](O)CO [fructose]
- sweetness index [1]: approximately 1.7

Molecule: C=C1C[C@@]23CC[C@H]4[C@@](C)(CCC[C@@]4(C)C(=O)O[C@@H]4O[C@H](CO)[C@@H](O)[C@H](O)[C@H]4O)[C@@H]2CC[C@]1(O[C@@H]1O[C@H](CO)[C@@H](O)[C@H](O[C@@H]2O[C@H](CO)[C@@H](O)[C@H](O)[C@H]2O)[C@H]1O[C@@H]1O[C@H](CO)[C@@H](O)[C@H](O)[C@H]1O)C3 [reb-A, Rebaudioside A]
- bitter aftertaste [2]: bitter aftertaste

- solubility ([3]; 1,3-propanediol, organic solvent or mixture, thermodynamic from solid, solvent heated in excess of 80° C. (175° F.) and cooled to room temperature): ~795 mg/mL (≈ 616 mM)
- retention in solution on cooling ([3]; heated 1,3-propanediol solution cooled back to room temperature): retained in the solution
- retention in solution on cooling ([3]; heated 1,3-propanediol solution cooled to approximately 2° C. (36° F.)): retained in solution
Molecule: C=C1C[C@@]23CC[C@H]4[C@@](C)(CCC[C@@]4(C)C(=O)O[C@@H]4O[C@H](CO)[C@@H](O)[C@H](O[C@@H]5O[C@H](CO)[C@@H](O)[C@H](O)[C@H]5O)[C@H]4O[C@@H]4O[C@H](CO)[C@@H](O)[C@H](O)[C@H]4O)[C@@H]2CC[C@]1(O[C@@H]1O[C@H](CO)[C@@H](O)[C@H](O[C@@H]2O[C@H](CO)[C@@H](O)[C@H](O)[C@H]2O)[C@H]1O[C@@H]1O[C@H](CO)[C@@H](O)[C@H](O)[C@H]1O)C3 [reb-M, rebaudioside-M]
- bitter aftertaste [2]: reduced bitterness of aftertaste
- solubility in water [4]: up to 0.1 g per 100 ml water
